“Also recorded” adds a separate entry of the source.
Legend:
[1] = test system: oxygen-induced vessel loss (retinal vasculature); test: Oxygen-induced vessel loss (vaso-obliteration) at P8 after 24 hours of 75% oxygen; type: in vivo, mouse; settings: 10 ng i.p. P5-P8, 24 hours of 75% oxygen
Method: O2-induced retinopathy (vessel degeneration, re-growth and pathological neovascularization). To induce vessel loss, postnatal day 7 (P7) mice with their nursing mother were exposed to 75% oxygen for times ranging from 24 hours to 5 days^1. To evaluate vaso-obliteration following 24 hours of oxygen exposure, P8 mice were anesthetized at with Avertin (Sigma) and perfused with 50 μl of 120 mg/ml FITC-dextran (2×10^6 molecular weight, FD2000S-5G, Sigma) in saline through the left ventricle^21. Eyes were enucleated and fixed in 4% paraformaldehyde for 2 h at 4° C. Retinas were isolated and whole-mounted with SlowFade Antifade reagent (S2828, Molecular Probes) onto polylysin-coated slides with the photoreceptor side up. Retinas were examined with a fluorescence microscope (Olympus, Tokyo), digitized images using a three-charge-coupled device color video camera (DX-950P, Sony), and processed with NORTHERN ECLIPSE software (Empix Imaging, Toronto). Retinal neovascularization was evaluated 5 days after oxygen exposure (P7-P12) at P17 when the neovascular response is greatest. […]
Quantification of vaso-obliteration and retinal neovascularization. […] Vaso-obliteration and neovascular tuft formation were quantified by comparing the number of pixels in the affected areas with the total number of pixels in the retina. […]
Resolvins and Neuroprotectins. […] Retinas collected at P17 from omega-6 or omega-3 polyunsaturated fatty acid fed dams and exposed to high oxygen or room air conditions were analyzed to determine lipid mediator profiles. Polyunsaturated fatty acid derived products were extracted, identified, and quantified using a deuterium-labeled internal standard and MS-MS based mediator informatics^23. […] Following retinal staining and whole-mounting, neovascularization and vaso-obliteration were quantified at P17. Vaso-obliteration was also assessed at P8 (after 24 hours of 75% oxygen exposure) in pups given 10 ng of RvD1 (n=7), RvE1 (n=9), NPD1 (n=7), or saline/EtOH vehicle injections (n=6) i.p. from P5-P8. […]

TNF-α = settings: literature refs 14-16; cited from earlier work
[2] = test system: oxygen-induced retinopathy (retinal vasculature); test: O2-induced retinopathy: vaso-obliteration and neovascularization at P17; type: in vivo, mouse; settings: for decrease in neovascularization (Tufts) compared to vehicle / decrease in vessel loss (VO) compared to vehicle control: 10 ng i.p. daily P6-P17, read at P17; for neovascularization at P17 compared to saline controls / protection from vaso-obliteration compared to saline-injected controls: 10 ng/day i.p. P6-P17
Method: O2-induced retinopathy (vessel degeneration, re-growth and pathological neovascularization). To induce vessel loss, postnatal day 7 (P7) mice with their nursing mother were exposed to 75% oxygen for times ranging from 24 hours to 5 days^1. To evaluate vaso-obliteration following 24 hours of oxygen exposure, P8 mice were anesthetized at with Avertin (Sigma) and perfused with 50 μl of 120 mg/ml FITC-dextran (2×10^6 molecular weight, FD2000S-5G, Sigma) in saline through the left ventricle^21. Eyes were enucleated and fixed in 4% paraformaldehyde for 2 h at 4° C. Retinas were isolated and whole-mounted with SlowFade Antifade reagent (S2828, Molecular Probes) onto polylysin-coated slides with the photoreceptor side up. Retinas were examined with a fluorescence microscope (Olympus, Tokyo), digitized images using a three-charge-coupled device color video camera (DX-950P, Sony), and processed with NORTHERN ECLIPSE software (Empix Imaging, Toronto). Retinal neovascularization was evaluated 5 days after oxygen exposure (P7-P12) at P17 when the neovascular response is greatest. P17 mice were given a lethal dose of Avertin (Sigma) and their eyes were enucleated and fixed in 4% paraformaldehyde for 2 h at 4° C. Retinas were isolated and stained overnight with fluoresceinated Griffonia Bandereiraea Simplicifolia Isolectin B4 (Alexa Fluor 488-121411 or Alexa Fluor 594-121413, Molecular Probes) in 1 mM CaCl2 in PBS. Following 2 hours of washes, retinas were whole-mounted with glycerol-gelatin (Sigma) onto polylysin-coated slides with the photoreceptor side up and imaged with a confocal microscope.
Quantification of vaso-obliteration and retinal neovascularization. Images of each of 4 quadrants of whole-mounted retina were taken at 5× magnification and imported into Adobe Photoshop. Retinal segments were merged to produce an image of the entire retina. Vaso-obliteration and neovascular tuft formation were quantified by comparing the number of pixels in the affected areas with the total number of pixels in the retina. Percentages of vaso-obliteration and neovascularization from mouse retinas were compared with values for retinas from age-matched control mice with identical oxygen conditions^17,22. Evaluation was done blind to the identity of the sample.
Resolvins and Neuroprotectins. C57B1/6 nursing mothers were fed a diet rich in either omega-6 or omega-3 polyunsaturated fatty acids from birth. To induce proliferative retinopathy in the pups, mice were exposed to 75% oxygen from P7 to P12. Retinas collected at P17 from omega-6 or omega-3 polyunsaturated fatty acid fed dams and exposed to high oxygen or room air conditions were analyzed to determine lipid mediator profiles. Polyunsaturated fatty acid derived products were extracted, identified, and quantified using a deuterium-labeled internal standard and MS-MS based mediator informatics^23. Results were obtained from retinas of six mice, each from a separate litter. Treatments with synthetic RvD1 (7S,8R,17S-trihydroxy-docosa-4Z,9E,11E,13Z,15E,19Z-hexaenoic acid), RvE1 (5S,12R,18R-trihydroxy-6Z,8E,10E,14Z,16E-eicosapentaenoic acid) and Neuroprotectin-D1 (10R,17S dihydroxy-docosa-4Z,7Z,11E,13E,15Z,19z-hexaneoic acid) were performed in 4 litters of mice. RvD1, RvE1 and NPD1 were prepared by organic synthesis according to published procedures matching physical and biological criteria^14,24,25. The pups were injected i.p. daily from P6-P17 (before, during, and after exposure to 75% oxygen) with 10 ng of either RvD1 (n=14), RvE1 (n=10) or NPD1 (n=14) or Saline/EtOH (n=14) vehicle. Following retinal staining and whole-mounting, neovascularization and vaso-obliteration were quantified at P17. Vaso-obliteration was also assessed at P8 (after 24 hours of 75% oxygen exposure) in pups given 10 ng of RvD1 (n=7), RvE1 (n=9), NPD1 (n=7), or saline/EtOH vehicle injections (n=6) i.p. from P5-P8. Vaso-obliteration was quantified on retinal whole-mounts following FITC-dextran intracardiac perfusion and fixation as above. […]

[3] = test system: oxygen-induced retinopathy (retinal vasculature); test: as above; type: in vivo, mouse
[4] = i.p. injection, 500 μg/mouse at P7, P12, P14, P16, omega-6 PUFA fed mice
[5] = intraocular (intravitreous) injection 12.5 μg on P12, omega-6 PUFA fed mice

Row | Compound | oxygen-induced vessel loss (VO) at P8 compared to saline-injected control [1] | TNF-α mRNA expression levels in inflammatory models (TNF-α) | decrease in neovascularization (Tufts) compared to vehicle [2] | decrease in vessel loss (VO) compared to vehicle control [2] | neovascularization at P17 compared to saline controls [2] | protection from vaso-obliteration compared to saline-injected controls [2] | pathologic neovascularization compared to saline injected controls [3, 4] | vaso-obliteration (vessel loss) compared to saline injected controls [3, 4] | retinal neovascularization compared to fellow saline-injected eye [3, 5] | vaso-obliteration compared to fellow saline-injected eye [3, 5]
1 | CC/C=C\C[C@H](O)\C=C/C=C/C=C/[C@H](O)C/C=C\C/C=C\CCC(=O)O [NPD1, 10R,17S dihydroxy-docosa-4Z,7Z,11E,13E,15Z,19z-hexaneoic acid] | No apparent differences in vessel loss; also recorded: no protective action | significantly reduce TNF-α mRNA expression levels | 30% | 40% | less neovascularization | significant protection from vaso-obliteration |  |  |  | 
2 | CC/C=C\C[C@H](O)/C=C/C=C\C=C\C=C\[C@@H](O)[C@@H](O)C/C=C\CCC(=O)O [RvD1, 7S,8R,17S-trihydroxy-docosa-4Z,9E,11E,13Z,15E,19Z-hexaenoic acid] | No apparent differences in vessel loss | significantly reduce TNF-α mRNA expression levels | 30% | 40% | less neovascularization | significant protection from vaso-obliteration |  |  |  | 
3 | CC[C@@H](O)/C=C/C=C\C[C@@H](O)/C=C/C=C/C=C\[C@@H](O)CCCC(=O)O [RvE1, 5S,12R,18R-trihydroxy-6Z,8E,10E,14Z,16E-eicosapentaenoic acid] | No apparent differences in vessel loss; also recorded: no protective action | significantly reduce TNF-α mRNA expression levels | 30% | 40% | less neovascularization | significant protection from vaso-obliteration |  |  |  | 
4 | etanercept |  |  |  |  |  |  | significantly protected; also recorded: significant reduction in pathologic neovascularization | significantly protected; also recorded: significant reduction in vaso-obliteration | suppressed retinal neovascularization; also recorded: significantly improved neovascularization | significantly reduce vaso-obliteration
